Laboratory results taken from patent publication US6630572B1, “Thrombin derived polypeptides: compositions and methods for use” (The Board of Regents, University of Texas Syatems, priority 1986, dated 2003).
Ends that are not written are not given here.

Assays:
[1] = test system: high-affinity thrombin receptor; experiment: Competition for specific [125I]-alpha-thrombin binding to ME cells; set-up: species or system mouse; settings: for fold higher concentration than p508-530 required for 30% inhibition of [125I]-alpha-thrombin binding: ME cells; for Conc. at Maximal % Inhibition / Concentration Required for 30% Inhibition / Maximal % Inhibition: [125I]-alpha-thrombin (1 nM), quiescent ME cells; for Concentration Required for 30% Inhibition / Maximal % Inhibition: 23° C.; for Maximal % Inhibition: at the conc. printed below the value
Procedure: Specific techniques whereby the competitive binding studies were performed are set out below. Human alpha-thrombin was iodinated in the presence of benzamidine (an active-site competitive inhibitor), lactoperoxidase, and Na[^125I]. […] These iodinated preparations retained approximately 80% of their fibrinogen clotting activity. The ability of the synthetic peptides to compete for specific [^125I]-alpha-thrombin binding to fibroblasts was measured on nonproliferating, mitogenically responsive cultures in 24 well plates (Falcon) at a cell density of approximately 5×10^4 cells/cm^2 as previously described (Carney and Cunningham, Cell, 15:1341-1349 (1978)). The medium on the cells was changed to binding medium (serum-free DV medium containing 0.5% (w/v) bovine serum albumin buffered with 15 mM HEPES at pH 7.0). The cells were equilibrated at 23° C. for 30 minutes, and the medium was changed to binding medium containing [^125I]-alpha-thrombin (10 ng/ml) with the indicated concentrations of the peptides. After 2 hours at 23° C., the assay was terminated by quickly rinsing the cells four times with ice-cold PBS. The cells were dissolved in 1 ml of 0.5 N NaOH and the total radioactivity was measured using a Beckman gamma counter. Nonspecific binding was measured as the radioactivity bound to cultures after incubation in binding medium containing a 100-fold excess of unlabeled alpha-thrombin. Specific binding was calculated by subtracting nonspecific binding from total radioactivity bound to cultures. […] Scatchard analysis of the direct binding of [^125I]-labeled p508-530 indicated a KD of approximately 6×10^−8 M (data not shown). […] Various concentrations of peptides and [^125I]-alpha-thrombin (1 nM) were incubated with quiescent ME cells for […] at 23° C. Specific binding of [^125I]-alpha-thrombin was defined as described in Example 3.

NIL cells = experiment: [3H]-thymidine incorporation (DNA synthesis) in quiescent NIL cells; format: cell-based, hamster; settings: for effect on alpha-thrombin stimulated DNA synthesis: quiescent NIL cells, increasing peptide concentrations, 2 and 4 nM alpha-thrombin, FIG. 6
Procedure: Primary cultures of fibroblasts were prepared from 9- to 13-day old embryos of NIH-swiss outbred mice as described by Carney and Cunningham, Cell, 15:1341-1349, (1978). NIL cells, an established strain of hamster fibroblasts, were maintained as stock cultures and subcultured every four days. All cells were grown in Dulbecco-Vogt modified Eagle's (DV) medium supplemented with 10% (v/v) bovine calf serum (CS), in a humidified atmosphere of 5% CO2 in air at 37° C. Quiescent cultures were prepared by subculturing stock cells from 100 mm dishes, using 0.05% (w/v) trypsin and 0.02% EDTA (w/v) in phosphate-buffered saline (PBS) and plating them in 24-well culture plates in DV medium supplemented with 10% (v/v) CS at 6×10^4 cells/cm^2. After allowing the cells to attach overnight, the medium was removed and the cells were rinsed with DV medium containing no serum. The cells were incubated in this serum-free medium for 48 hours before the indicated experiments. […] The effects of the synthetic peptides on DNA synthesis were determined by measuring the incorporation of methyl-[^3H]-thymidine (TdR, ICN Pharmaceuticals, Irvine, Calif.) during a 2 hour incubation generally from 22 hours after addition of peptides and/or thrombin (Stiernberg et al., J. Cell Physiol., 120:209-285 (1984)). After incubation, the cells were extracted and rinsed with ice-cold 10% (w/v) trichloroacetic acid (TCA). The acid precipitable material was dissolved overnight in 0.5 ml 0.5 N KOH at 23° C. HCl (1 N), 0.25 ml, was added and the solution was counted in 10 ml of RediSolv-HPb (Beckman Instruments, Houston, Tex.) scintillation fluid. The present inventors first tested the ability of p508-530 to stimulate DNA synthesis in non-proliferating cultures of ME or NIL cells. […] However, in combination with 2 nM alpha-thrombin, 0.1 uM p508-530 stimulated a 6- or greater than 2-fold increase in incorporation of [^3H]-thymidine into DNA in ME cells when compared to parallel cultures left untreated or treated with alpha-thrombin alone, respectively (FIG. 4A). A similar mitogenic stimulation was also observed in NIL hamster cells, although it required a slightly higher concentration of thrombin and peptides (FIG. 4B). […] With NIL cells, a similar correlation was observed between the mitogenic concentrations of p508-530 and the concentrations required to inhibit thrombin binding, although at higher levels than required with ME cells. […] It was predicted, therefore, that if p508-530 was generating a receptor occupancy-related signal, its addition to cells in combination with PMA should stimulate mitogenesis. […] This stimulation occurred at approximately the same concentration of peptide as that required to stimulate DNA synthesis in the presence of low concentrations of alpha-thrombin. […]

fibroblast = settings: compared with fibronectin-specific peptides; cited from earlier work
ME cells = experiment: [3H]-thymidine incorporation (DNA synthesis) in quiescent ME cells; format: cell-based, mouse; settings: for inhibition of alpha-thrombin stimulated DNA synthesis: 625 nM peptide, FIG. 7
Procedure: Primary cultures of fibroblasts were prepared from 9- to 13-day old embryos of NIH-swiss outbred mice as described by Carney and Cunningham, Cell, 15:1341-1349, (1978). NIL cells, an established strain of hamster fibroblasts, were maintained as stock cultures and subcultured every four days. All cells were grown in Dulbecco-Vogt modified Eagle's (DV) medium supplemented with 10% (v/v) bovine calf serum (CS), in a humidified atmosphere of 5% CO2 in air at 37° C. Quiescent cultures were prepared by subculturing stock cells from 100 mm dishes, using 0.05% (w/v) trypsin and 0.02% EDTA (w/v) in phosphate-buffered saline (PBS) and plating them in 24-well culture plates in DV medium supplemented with 10% (v/v) CS at 6×10^4 cells/cm^2. After allowing the cells to attach overnight, the medium was removed and the cells were rinsed with DV medium containing no serum. The cells were incubated in this serum-free medium for 48 hours before the indicated experiments. […] The effects of the synthetic peptides on DNA synthesis were determined by measuring the incorporation of methyl-[^3H]-thymidine (TdR, ICN Pharmaceuticals, Irvine, Calif.) during a 2 hour incubation generally from 22 hours after addition of peptides and/or thrombin (Stiernberg et al., J. Cell Physiol., 120:209-285 (1984)). After incubation, the cells were extracted and rinsed with ice-cold 10% (w/v) trichloroacetic acid (TCA). The acid precipitable material was dissolved overnight in 0.5 ml 0.5 N KOH at 23° C. HCl (1 N), 0.25 ml, was added and the solution was counted in 10 ml of RediSolv-HPb (Beckman Instruments, Houston, Tex.) scintillation fluid. The present inventors first tested the ability of p508-530 to stimulate DNA synthesis in non-proliferating cultures of ME or NIL cells. […] In order to explain the mechanism by which p517-520 was able to inhibit thrombin-mediated mitogenesis, the inventors measured the ability of increasing concentrations of alpha-thrombin to stimulate DNA synthesis in cultures to which a constant concentration (625 nM) of p517-520 had been added (FIG. 7). […]

Row | Substance | fold higher concentration than p508-530 required for 30% inhibition of [125I]-alpha-thrombin binding [1] [fold] | Conc. at Maximal % Inhibition [1] | Concentration Required for 30% Inhibition [1] [nM] | Maximal % Inhibition [1] [%] | mitogenesis (summary statement) (NIL cells) | effect on alpha-thrombin stimulated DNA synthesis (NIL cells) | promotion of fibroblast attachment (fibroblast) | also measured
1 | DACEGDSGGPFV [p519-530, peptide representing residues 519 to 530 of the B-chain region of human prothrombin] | 33 | (800 Nm) | 200 | 51 | retains the ability to mediate mitogenesis but to a much lesser degree than p508-530 | enhanced DNA synthesis |  | 
2 | Arg-Gly-Ala-Ser (RGAS; printed: Arg-Gly-Ala-Ser) [reference compound] |  |  |  |  |  |  |  | competition with [125I]-alpha-thrombin for binding ([1]; concentration of 1.3 uM): did not compete
3 | p510-526: peptide representing 510-526 of human prothrombin (TKPDEGKRGDACEGDSG; Fragment of human prothrombin) |  |  |  |  |  |  | comparable to that induced by fibronectin-specific peptides | 
4 | p516-522: peptide representing 516-522 of human prothrombin (KRGDACE; Fragment of human prothrombin) |  |  |  |  |  |  | comparable to that induced by fibronectin-specific peptides | 
5 | Arg-Gly-Asp-Ala (RGDA; Fragment of human prothrombin) [p517-520] | 50 | (2.7 uM) | 300 | 50 | without inducing mitogenesis | inhibited DNA synthesis | comparable to that induced by fibronectin-specific peptides | molar excess of peptide required for inhibition of alpha-thrombin stimulation (ME cells): 500-1000 fold; inhibition of alpha-thrombin stimulated DNA synthesis (ME cells; 0.8 nM alpha-thrombin): approximately 75%; inhibition of alpha-thrombin stimulated DNA synthesis (ME cells; 13.0 nM alpha-thrombin): ~35%
